How the values were obtained:
[1] = Acid stability determination; assay type: physicochemical; conditions: pH = 2, 50 °C; for half-life at 100 µM: 0.01 M HCl in deionized water, read-out: t1/2 in acidic conditions (converted)
Procedure: Immediately after mixing, an aliquot (100 μL) was sampled and analyzed by HPLC/UV. The area under the compound peak was determined and used as the time zero reference point. […] These were analyzed by the same HPLC/UV method and the area of the peak corresponding to the test compound was measured. Percent remaining at a given time point was then calculated as the ratio of the area under the peak after incubation to that at time zero times 100.

[2] = system: GM15850 cells (FRDA lymphoblastoid cell line); experiment: In-cell deacetylase inhibition assay (DAC assay); assay type: cell-based, human; conditions: 4 h incubation
Text: Compound dilutions were made in 100% DMSO followed by parallel dilution in media with 2% DMSO. […] The final concentration of DMSO in each well was 0.2%.

recombinant HDAC2 = recombinant HDAC2 (Homo sapiens, UniProt Q92769); experiment: HDAC enzyme inhibition assay (Fluor-de-Lys), HDAC2
in vivo = conditions: rat, 5 mg/kg
HDAC3/NcoR2 = HDAC3/NcoR2 (Homo sapiens, UniProt O15379); experiment: HDAC enzyme inhibition assay (Fluor-de-Lys), HDAC3; conditions: for selectivity for HDAC3 over HDAC1: ratio of IC50 values HDAC1/HDAC3
Hct116 cells = experiment: Cytotoxicity, antiproliferation assay; assay type: cell-based; conditions: for ratio cytotoxicity/DAC: Hct116 antiproliferation IC50 / in-cell DAC IC50
[3] = Cytotoxicity, antiproliferation assay; assay type: cell-based; conditions: human, Hct116 cells
[4] = system: FXN gene transcription in primary lymphocytes from a FRDA patient; experiment: Frataxin mRNA assay (quantitative RT-PCR); assay type: cell-based, human; conditions: 10 μM compound, 48 h, primary lymphocytes from FRDA patient donor blood, normalized to DMSO control
Procedure: In general, the activity of a compound against HDAC3 is related to its ability to increase FXN gene transcription. Compounds click-1 and -2 were assayed for their ability to increase transcription of the FXN gene in primary lymphocytes from a FRDA patient, as previously described.
Quantitative RT-PCR was used to estimate FXN mRNA levels after treatment with 10 μM compound for 48 h, and values were normalized to the level of FXN mRNA observed for a DMSO vehicle control.
Figure 3 Click-derived HDAC inhibitors induce frataxin gene expression in primary lymphocytes isolated from FRDA patient donor blood samples, compared to a standard pimelic o-aminobenzamide (109). Concentration of each compound is 10 μM.

recombinant HDAC1 = recombinant HDAC1 (Homo sapiens, UniProt Q13547); experiment: HDAC enzyme inhibition assay (Fluor-de-Lys), HDAC1
[5] = Brain penetration in mouse; assay type: in vivo; conditions: brain and plasma
[6] = Compound stability (method not described); assay type: physicochemical; conditions: conditions not stated
Text: All three azides 5, 8 and 16 were subjected to click chemistry with common intermediate 3 to give the corresponding triazole products click-1, click-2 and click-3 (Scheme 5). Each compound was characterized by ^1H-, ^13C-NMR and mass spectrometry.

HDAC3/NcoR2, sequence (O15379 whole entry): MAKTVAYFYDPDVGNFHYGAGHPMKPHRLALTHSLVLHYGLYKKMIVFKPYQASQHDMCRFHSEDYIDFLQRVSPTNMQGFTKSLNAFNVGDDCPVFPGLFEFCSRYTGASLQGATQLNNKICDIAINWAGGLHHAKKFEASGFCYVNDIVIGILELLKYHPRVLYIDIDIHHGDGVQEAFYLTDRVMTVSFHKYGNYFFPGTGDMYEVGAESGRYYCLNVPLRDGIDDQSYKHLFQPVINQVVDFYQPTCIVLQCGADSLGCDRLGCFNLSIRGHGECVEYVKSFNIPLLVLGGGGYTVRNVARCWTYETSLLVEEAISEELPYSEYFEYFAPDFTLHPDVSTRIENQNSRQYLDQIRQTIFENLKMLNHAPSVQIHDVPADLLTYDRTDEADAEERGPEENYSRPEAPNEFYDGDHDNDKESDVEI
HDAC3/NcoR2, sequence (Q9Y618 395-489 partner limits assumed): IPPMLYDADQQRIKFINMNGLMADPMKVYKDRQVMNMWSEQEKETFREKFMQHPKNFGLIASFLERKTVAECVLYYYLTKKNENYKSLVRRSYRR
recombinant HDAC2, sequence (Q92769 whole entry): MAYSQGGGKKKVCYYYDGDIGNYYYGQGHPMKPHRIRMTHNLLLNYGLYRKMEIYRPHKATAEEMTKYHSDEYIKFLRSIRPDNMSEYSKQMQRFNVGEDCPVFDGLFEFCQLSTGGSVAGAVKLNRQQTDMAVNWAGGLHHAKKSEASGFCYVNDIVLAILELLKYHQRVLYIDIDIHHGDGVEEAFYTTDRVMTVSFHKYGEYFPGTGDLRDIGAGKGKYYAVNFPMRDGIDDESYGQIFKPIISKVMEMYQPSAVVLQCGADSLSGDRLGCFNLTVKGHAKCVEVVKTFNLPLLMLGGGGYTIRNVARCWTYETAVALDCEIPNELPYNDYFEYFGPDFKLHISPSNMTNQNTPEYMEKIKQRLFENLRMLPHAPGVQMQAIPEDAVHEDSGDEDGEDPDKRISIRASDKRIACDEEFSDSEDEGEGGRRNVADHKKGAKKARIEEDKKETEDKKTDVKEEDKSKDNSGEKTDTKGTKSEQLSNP
recombinant HDAC1, sequence (Q13547 whole entry): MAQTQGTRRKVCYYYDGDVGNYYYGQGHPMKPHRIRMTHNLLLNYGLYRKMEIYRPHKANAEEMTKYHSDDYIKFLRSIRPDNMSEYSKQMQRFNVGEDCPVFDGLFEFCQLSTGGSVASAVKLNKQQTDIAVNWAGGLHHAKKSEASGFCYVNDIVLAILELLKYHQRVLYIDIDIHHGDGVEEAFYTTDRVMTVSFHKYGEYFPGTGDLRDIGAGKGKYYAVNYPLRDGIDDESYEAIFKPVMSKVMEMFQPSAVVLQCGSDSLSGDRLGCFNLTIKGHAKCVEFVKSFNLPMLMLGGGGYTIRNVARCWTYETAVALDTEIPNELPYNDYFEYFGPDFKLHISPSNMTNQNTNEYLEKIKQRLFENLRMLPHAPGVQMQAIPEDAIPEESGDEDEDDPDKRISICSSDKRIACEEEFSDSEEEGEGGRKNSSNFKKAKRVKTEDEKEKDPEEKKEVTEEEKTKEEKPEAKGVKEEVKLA

Row | half-life at 100 µM [1] [h] | improvement of acid half-life relative to HDACi 109 [1] [fold] | IC50 ([2]; Homo sapiens) [µM] | IC50 (recombinant HDAC2) [µM] | IC50 (HDAC3/NcoR2) [µM] | selectivity for HDAC3 over HDAC1 (HDAC3/NcoR2) [fold] | IC50 (recombinant HDAC1) [µM] | SMILES | ratio cytotoxicity/DAC (Hct116 cells) | IC50 [3] [µM] | promoting transcription of the silenced FXN gene (FXN mRNA) [4] | other results
1 | 33 | 5.5 | 5.6 | 0.477 | 0.028 | 2.4 | 0.066 | Nc1ccccc1NC(=O)/C=C/c1cn(CC=Cc2ccccc2)nn1 [Click-1, (E)-N-(2-Aminophenyl)-3-(1-cinnamyl-1H-1,2,3-triazol-4-yl)acrylamide] | 4.1 | 23 | highly active | Kp (in vivo; brain and plasma, intravenous): 0.33; Cmax (in vivo; brain, iv): 800 ng/g; Tmax (in vivo; brain, iv): 5 min
2 | 24 | 4 | 5.1 | 0.466 | 0.039 | 1.2 | 0.046 | Nc1ccccc1NC(=O)/C=C/c1cn(C/C=C/c2ccc3cc[nH]c3c2)nn1 [Click-2, (E)-3-(1-((E)-3-(1H-Indol-6-yl)allyl)-1H-1,2,3-triazol-4-yl)-N-(2-aminophenyl)acrylamide] | 5.3 | 27 | highly active | Kp [5]: 0.03
3 | – | – | 29.4 | – | – | – | – | Nc1ccccc1NC(=O)/C=C/c1cn(CCOc2ccc3cc[nH]c3c2)nn1 [Click-3, (E)-3-(1-(2-((1H-Indol-6-yl)oxy)ethyl)-1H-1,2,3-triazol-4-yl)-N-(2-aminophenyl)acrylamide] | – | – | – | stability [6]: poor stability
4 | – | – | – | – | – | – | – | Nc1ccccc1NC(=O)c1ccc(CNC(=O)OCc2cccnc2)cc1 [MS-275, reference compound] | – | – | – | IC50 [2]: 1.9 µM; IC50 (Hct116 cells; Hct116 cells): 1 µM

Row | SMILES | half-life at 100 µM [1] [h] | improvement of acid half-life relative to HDACi 109 [1] [fold] | IC50 ([2]; Homo sapiens) [µM] | IC50 (recombinant HDAC2) [µM] | IC50 (HDAC3/NcoR2) [µM] | selectivity for HDAC3 over HDAC1 (HDAC3/NcoR2) [fold] | IC50 (recombinant HDAC1) [µM] | ratio cytotoxicity/DAC (Hct116 cells) | IC50 [3] [µM] | promoting transcription of the silenced FXN gene (FXN mRNA) [4] | other results
5 | Cc1ccc(C(=O)NCCCCCC(=O)Nc2ccccc2N)cc1 [compound 109] | 6 | – | – | – | – | – | – | – | – | – | –
